Earlier results on 1 molecule are cited in patent US11260028B2, “Nanosome formulations of aprepitant and methods and applications thereof” (ForDoz Pharma Corp., priority 2017, dated 2022).

As for `C[C@@H](O[C@H]1OCCN(Cc2n[nH]c(=O)[nH]2)[C@H]1c1ccc(F)cc1)c1cc(C(F)(F)F)cc(C(F)(F)F)c1` [aprepitant, 5-[[(2R,3S)-2-[(1R)-1-[3,5-bis(trifluoromethyl)phenyl]ethoxy]-3-(4-fluorophenyl)-4-morpholinyl]methyl]-1,2-dihydro-3H-1,2,4-triazol-3-one], the water solubility entry is “poor”.
